# Reference: patent publication US5545639A, “Method of inhibiting transformed cells” (The United States of America as represented by the …, priority 1994, dated 1996)
# Read-outs that look alike come from different tables or passages of the source.
# Assays:
# [1] = tested on: mouse L1210 leukemia cells; experiment: Example 1: growth of mouse L1210 leukemia cells with 2,9-DMP, with/without copper and BCS; format: cell-based; conditions: for activity at 0.4 µM: at concentrations above about 0.4 μM
# Description: The phenanthroline derivative 2,9-DMP was added to a culture of mouse L1210 leukemia cells alone (.smallcircle.), with copper sulfate (.circle-solid.), and with copper sulfate and bathocuproine sulfonate (.quadrature.). The concentrations of copper sulfate and bathocuproine sulfonate used in these experiments were both 25 μM. Methods used to grow the cells and to administer the test compounds were standard methods, well known to ordinary practitioners. The growth of the cells as a percent of control was determined, and the results were plotted in the graph of FIG. 1.
# L1210 cells = conditions: 2,9-DMP with copper; cited from earlier work
# mouse L1210 cells = conditions: coordinated copper complex, tissue culture; cited from earlier work
# [2] = tested on: P388 murine lymphocytic leukemia cells; conditions: mice inoculated with P388 cells; 2,9-DMP treatment with copper; cited from earlier work
# L1210 mouse cells = experiment: Example 3: growth of L1210 mouse cells with bis(halomethyl)phenanthrolines plus copper, with or without BCS; format: cell-based; conditions: copper 10 μM, BCS 100 μM
# Description: Bis(halomethyl)phenanthroline compounds were synthesized according to the method of Newkome et al., J. Org. Chem., 48, 5112-5114 (1983). Such compounds, namely, 2,9-bis(bromomethyl)phenanthroline and 2,9-bis(chloromethyl)phenanthroline, were added in the presence of copper, but with or without BCS (the copper chelator shown in Examples 1 and 2 to reduce inhibitory activity), to the culture media of L1210 mouse cells, using the same methods of Examples 1 and 2. The concentrations of copper and BCS used in these experiments were 10 μM and 100 μM, respectively. The growth of the cells as a percent of control were determined, and the results plotted in the graph of FIG. 3, wherein open squares (.quadrature.) represent the compound plus copper chelate and solid squares (.box-solid.) represent the compound together with both copper and BCS addition to the culture medium.
# [3] = tested on: mouse L1210 leukemia cells; experiment: Example 2: growth of mouse L1210 leukemia cells with monohalomethyl phenanthrolines, with/without copper and BCS; format: cell-based
# Description: The aforementioned monohalomethyl compounds were prepared and characterized as described by Newkome et al., J. Org. Chem., 54, 1766-1769 (1989). The compounds were then added to different cultures of mouse L1210 leukemia cells alone (.smallcircle.), with copper sulfate (.quadrature.), with BCS (.circle-solid.), or with BCS and copper sulfate (.box-solid.). The concentrations of copper and BCS used in these experiments were 10 μM and 100 μM, respectively. Methods used to grow the cells and to administer the test compounds were standard methods, well known to ordinary practitioners, and were similar to those used in Example 1. The growth of the cells as a percent of controls were determined, and the results were plotted in the graph of FIG. 2.
compound,measurement,setting,value
"Cc1ccc2ccc3ccc(C)nc3c2n1 [2,9-DMP, 2,9-dimethyl-1,10-phenanthroline]",activity at 0.4 µM,"[1]; Mus musculus, L1210, 2,9-DMP alone, read-out: cell growth as percent of control",< 20%
same,activity at 0.1 µM,"[1]; Mus musculus, L1210, with copper ion (copper sulfate 25 μM), at concentrations above about 0.1 μM, read-out: cell growth as percent of control",< 20%
same,activity at 0.4 µM,"[1]; Mus musculus, L1210, with copper ion (copper sulfate 25 μM), read-out: cell growth as percent of control",< 10%
same,concentration inhibiting to the same level (20% of control) relative to copper-chelated monobrominated phenanthroline,[1]; copper chelated,less than one-tenth of that concentration
same,inhibitory response of L1210 tumor in implanted animals,L1210 cells,"evident, although weak"
same,concentration effective for killing of L1210 cells,mouse L1210 cells,nanomolar concentrations
same,increase in life span,[2],45%
"BrCc1ccc2ccc3ccc(CBr)nc3c2n1 [2,9-bis(bromomethyl)-1,10-phenanthroline]","difference in inhibitory effect, presence vs absence of available copper (BCS)",L1210 mouse cells,about 10%
"Cc1ccc2ccc3ccc(CBr)nc3c2n1 [2-BM-9-MP, 2-bromomethyl-9-methyl-1,10-phenanthroline]",inhibitory activity compared with unhalogenated parent compound of Example 1,[3],less than that of the unhalogenated parent compound
"Cc1ccc2ccc3ccc(CCl)nc3c2n1 [2-CM-9-MP, 2-chloromethyl-9-methyl-1,10-phenanthroline]",inhibitory activity compared with unhalogenated parent compound of Example 1,[3],less than that of the unhalogenated parent compound
